# Literature values in patent US20080020059A1, “COMPOSITIONS AND METHODS FOR TOPICAL TREATMENT OF SKIN INFECTION” (CHIOU CONSULTING, INC., priority 2003, published 2008).
# Test system: acne
# Details: after 12 weeks of treatment
smiles,measurement,value
CC[C@H]1OC(=O)[C@H](C)[C@@H](O[C@H]2C[C@@](C)(OC)[C@@H](O)[C@H](C)O2)[C@H](C)[C@@H](O[C@@H]2O[C@H](C)C[C@H](N(C)C)[C@H]2O)[C@](C)(O)C[C@@H](C)C(=O)[C@H](C)[C@@H](O)[C@]1(C)O [erythromycin],patients showing satisfactory responses,about 50%
